Experimental data from EPA's ToxValDB 9.5.
Where “and” joins values, the source holds several entries; their conditions need not be identical. Equal entries are not always repeated.

What was measured:
Canidae [1] = conditions: chronic; duration: 1 years; oral; diet; M/F; Beagle; Increased plasma cholesterol (males)
Rattus norvegicus [2] = conditions: for LD50 / LC50: acute
Rattus norvegicus [3] = conditions: oral
Rattus norvegicus [4] = assay: LD0; higher = less toxic; conditions: acute
Mus musculus [5] = conditions: acute
Canidae [6] = conditions: oral, Beagle
Oryctolagus sp. = conditions: acute, New Zealand
Rattus norvegicus [7] = conditions: oral; remark: listed apart in the source
Rattus norvegicus [8] = conditions: repeat dose other; oral
Mus musculus [9] = conditions: uterotrophic; duration: 3 days; injection; subcutaneous; Active
Rattus norvegicus [10] = conditions: uterotrophic, injection, subcutaneous, Active
Rattus norvegicus [11] = conditions: chronic; duration: 2 years; oral; diet; Bladder: Hyperplasia
[12] = subchronic, duration: 13 weeks, diet
[13] = subchronic, duration: 13 weeks, oral, diet
[14] = subchronic, duration: 13 weeks, diet, F, Crl
[15] = subchronic, duration: 13 weeks, diet, M, Crl

With `N#Cc1c(N)nc(NC2CC2)nc1N` [Dicyclanil] the LOEL (Canidae [1]) was 4.4 mg/kg-day and the NOEL (Canidae [1]) was 0.71 mg/kg-day.

`O=S(=O)([O-])c1cc(Nc2nc(Nc3ccccc3)nc(N3CCOCC3)n2)ccc1C=Cc1ccc(Nc2nc(Nc3ccccc3)nc(N3CCOCC3)n2)cc1S(=O)(=O)[O-].[Na+].[Na+]` showed an LD50 (Rattus norvegicus [2]; oral, Sprague-Dawley) of 7000 mg/kg, an LD50 (Rattus norvegicus [2]; oral, gavage, Sprague-Dawley) of over 5000 mg/kg and an NOAEL (Rattus norvegicus [2]; chronic, duration: 24 months, oral, diet, F, Wistar) of 791 mg/kg-day. It also gave an NOAEL (Rattus norvegicus [2]; chronic, duration: 24 months, oral, diet, M, Wistar) of 524 mg/kg-day, an NOAEL (Rattus norvegicus [2]; short-term, duration: 14 days, oral, gavage, F, Wistar) of 1000 mg/kg-day and an NOAEL (Rattus norvegicus [2]; short-term, duration: 14 days, oral, gavage, M, Wistar) of 1000 mg/kg-day. The NOAEL (Rattus norvegicus [3]; short-term, duration: 28 days, gavage, Wistar) was 825 mg/kg-day and the LD0 (Rattus norvegicus [4]; dermal, semiocclusive, Wistar) was over 2000 mg/kg.

In the case of `SCc1ccccc1` [Benzenemethanethiol], the LC50 (Mus musculus [5]; inhalation, Swiss) is reported as 904 mg/m3, the LD50 (Rattus norvegicus [2]; injection, Intraperitoneal, Wistar) is reported as 373 mg/kg and the LD50 (Rattus norvegicus [2]; oral, gavage, Wistar) is reported as 493 mg/kg. For the same compound, the LD0 (Rattus norvegicus [4]; dermal, semiocclusive, Sprague-Dawley) was at least 2000 mg/kg.

`CC(O)CN(CC(C)O)c1nc(Nc2ccc(S(=O)(=O)[O-])cc2)nc(Nc2ccc(/C=C/c3ccc(Nc4nc(Nc5ccc(S(=O)(=O)[O-])cc5)nc(N(CC(C)O)CC(C)O)n4)cc3S(=O)(=O)[O-])c(S(=O)(=O)[O-])c2)n1.[Na+].[Na+].[Na+].[Na+]` (stereo not drawn) gave an LC50 (Canidae [6]; acute) of over 500 mg/kg, an LC50 (Oryctolagus sp.; oral) of over 1000 mg/kg and an LC50 (Mus musculus [5]; oral, NMRI) of over 1000 mg/kg. It also gave an LD50 (Rattus norvegicus [2]; oral, Wistar) of over 2500 mg/kg, an NOAEL (Rattus norvegicus [2]; short-term, duration: 5 days, oral, gavage, F, Wistar) of 1020 mg/kg-day and an NOAEL (Rattus norvegicus [2]; short-term, duration: 5 days, oral, gavage, M, Wistar) of 1020 mg/kg-day. It also gave an NOAEL (Rattus norvegicus [2]; subchronic, duration: 13 weeks, oral, gavage, F, Wistar) of 300 mg/kg-day and an NOAEL (Rattus norvegicus [2]; subchronic, duration: 13 weeks, oral, gavage, M, Wistar) of 300 mg/kg-day.

In the case of `CCCCCCO` [1-Hexanol], the “LOAEL (% diet)” value (Canidae [6]; [12]) is reported as 1, the “NOAEL (% diet)” value (Canidae [6]; [12]) is reported as over 0.5 and the LD50 (Mus musculus [5]; injection, intravenous) is reported as 100 mg/kg. It also gave an LC50 (Rattus norvegicus [2]; inhalation) of over 21 µg/mL, an NOAEL (Rattus norvegicus [2]; developmental, inhalation, Sprague-Dawley) of over 3500 mg/m3 and an NOAEL (Rattus norvegicus [2]; reproduction developmental, inhalation, F, Sprague-Dawley) of over 3500 mg/m3. The “LOAEL (% diet)” value (Rattus norvegicus [2]; [13]) was 1, the “NOAEL (% diet)” value (Rattus norvegicus [2]; [13]) was over 0.5 and the NOAEL (Rattus norvegicus [3]; [14]) was 1240 mg/kg-day. For the same compound, the NOEL (Rattus norvegicus [3]; [14]) was 1240 mg/kg-day, the NOAEL (Rattus norvegicus [3]; [15]) was 1130 mg/kg-day and the NOEL (Rattus norvegicus [3]; [15]) was 1130 mg/kg-day.

Work on `CC(C)CC(C)(O)C#CC(C)(O)CC(C)C` (stereo not drawn) [2,4,7,9-Tetramethyl-5-decyne-4,7-diol] yielded an LOAEL (Canidae [6]; chronic, duration: 130 days) of 200 mg/kg-day, an LD50 (Oryctolagus sp.; dermal, occlusive) of over 1000 mg/kg and an LC50 (Rattus norvegicus [2]; Inhalation) of over 20 µg/mL. The LD50 (Rattus norvegicus [2]; dermal) was over 2000 mg/kg, the LD50 (Rattus norvegicus [2]; oral, Sprague-Dawley) was over 500 mg/kg and the NOAEL (Rattus norvegicus [2]; reproduction developmental, oral, diet, Sprague-Dawley, generation: F0) was 500 mg/kg-day. It also gave an NOAEL (Rattus norvegicus [2]; reproduction developmental, oral, diet, Sprague-Dawley, generation: F1) of 500 mg/kg-day and an NOAEL (Rattus norvegicus [2]; short-term, duration: 28 days, oral, diet) of 5000 ppm.

For `O=C1C2(Cl)C3(Cl)C4(Cl)C(Cl)(Cl)C5(Cl)C3(Cl)C1(Cl)C5(Cl)C24Cl` (stereo not drawn) [Kepone], the NOAEL (Rattus norvegicus [7]; chronic, duration: 2 years, diet, M/F, Wistar, renal) was 0.089 mg/kg-day, the NOAEL (Rattus norvegicus [7]; short-term, duration: 10 days, gavage, M, Fischer 344, neurological) was 1.25 mg/kg-day and the NOAEL (Rattus norvegicus [7]; subchronic, duration: 90 days, diet, M, Sprague-Dawley, neurological, reproductive) was 0.26 mg/kg-day. The LOAEL (Rattus norvegicus [8]) was 0.4 mg/kg-day, the NOAEL (Rattus norvegicus [8]) was 0.08 mg/kg-day and the LEL (Mus musculus [9]) was 1 mg/kg-day. The LEL (Rattus norvegicus [10]; duration: 1 days) was 10 mg/kg-day, the LEL (Rattus norvegicus [10]; duration: 2 days) was 0.2 mg/day and the LEL (Rattus norvegicus [10]; duration: 3 days) was 15 mg/kg-day and 20 mg/kg-day and 30 mg/kg-day.

Work on `O=C(O)c1ccc(C(=O)O)cc1` [Terephthalic acid] yielded an NOEL (Rattus norvegicus [11]) of 142 mg/kg-day and an LD0 (Rattus norvegicus [4]; oral) of 2000 mg/kg.
